Marks after values point to notes of the source that are not given here.

Test [1] concerns RIG-I deficient CT26 RIG-1−/− cells. As to the kind of experiment: CXCL10 secretion in RIG-I deficient CT26 RIG-1−/− cells (ELISA). In kind it is cell-based, murine. The settings on record: 24 h. The procedure:
(§1) The CT26 murine colon carcinoma cell line (ATCC) was used to evaluate the induction of CXCL10 secretion. CXCL10 is an important chemokine in tumor immune biology that recruits tumor-specific T cells to the tumor. To confirm that compound-mediated CXCL10 production was RIG-I specific, RIG-I deficient CT2-RIG-1−/− cells were generated by Kineta using CRISPR technology.
(§2) CT26 cells were seeded at a density of 1×10^4 cells per well on a 96-well tissue culture plate in 100 μL of cell culture and cells were incubated at 37° C. and 5% CO2 for 24 hr. Next, CT26 cells were treated with compounds at the indicated concentrations. CXCL10 was quantified by ELISA from supernatants taken 24 h after compound stimulation by use of the CXCL10 DuoSet ELISA kit (Cat # DY466, R&D, Minneapolis, Minn., USA) according to the manufacturer's instructions.
(§3) CXCL10 secretion by CT26 cells in response to compounds (in an amount of 5 to 20 μM) of the present disclosure is shown in Table 8. The compound-induced CXCL10 production was RIG-I dependent, since none of the compounds mediated CXCL10 secretion in RIG-I deficient CT26 RIG-1−/− cells. The compounds (10 μM, *20 μM, **5 μM) are indicated in the table as follows: “−” indicates less than 100 pg/mL; “+” indicates 100-199 pg/mL; “++” indicates 200-399 pg/mL; “+++” indicates 400-799 pg/mL; “++++” indicates 800 to 1599 pg/mL; “+++++” indicates greater than or equal to 1600 pg/ml.
Background: ELISA stands for enzyme-linked immunosorbent assay.

In test [2] the test system is THP1-Lucia ISG IRF3 −/− cells. As to the kind of experiment: IRF3-deficient THP1-Lucia ISG IRF3 −/− reporter assay (counter-screen). In kind it is cell-based. Conditions: Homo sapiens, 18 h after stimulation, read-out: THP1 ISG IRF3 −/−: fold increase of luciferase activity over background; for fold induction at 10 µM: 10 μM compound; for fold induction at 5 µM: 5 μM compound (**). The procedure:
(§4) The promotor was comprised of five IFN-stimulated response elements (ISRE) fused to an ISG54 minimal promotor which is unresponsive to NF-kB or AP-1 pathways. […] The IRF3-deficient THP1-Lucia™ ISG IRF3 −/− reporter cell line was generated by CRISPR technology from the parent THP1-Lucia™ ISG reporter cell line.
(§5) 5 THP1-Lucia™ ISG cells and IRF3-deficient THP1-Lucia™ ISG IRF3 −/− cells were differentiated with PMA (100 ng/ml) and stimulated with compounds at the indicated concentrations (5 to 20 μM), positive control, or not treated (background). Luciferase secretion was quantified using the QUANTI-Luc luciferase assay system (InvivoGen) 18 h after stimulation. Data are shown as fold increase luciferase activity over background in Table 7 and represent the IRF3-dependent ISG54 promotor activity by the THP1-Lucia™ ISG cells in response to compounds. […] The fold increase of compounds (10 μM, *20 μM, **5 μM) induced IRF3 dependent luciferase activity is indicated as follows: “−” indicates less than 2.4 fold increase; “+” indicates a 2.4-4.9 fold increase; “++” indicates a 5-9.9 fold increase; “+++” indicates a 10-19 fold increase; “++++” indicates a 20-39 fold increase; “+++++” indicates greater than or equal to 40 fold increase.
A general note: A reporter such as luciferase makes a cellular process visible.

For test [3], the system named is IRF3 signaling pathway (IRF-inducible ISG54 promotor) in THP1-Lucia ISG cells. As to the kind of experiment: THP1-Lucia ISG reporter assay: induction of IRF3-dependent luciferase activity. The test is classed as cell-based. The settings on record: Homo sapiens, PMA-differentiated cells, 18 h after stimulation, read-out: THP1 ISG: fold increase of IRF3-dependent luciferase activity over background; for fold induction at 10 µM: 10 μM compound; for fold induction at 5 µM: 5 μM compound (**). The procedure: The compounds were evaluated in the THP1-Lucia™ ISG (interferon stimulated genes) reporter assay to determine if the compounds activate the IRF3 signaling pathway. The THP1-Lucia™ cells (InvivoGen) express the secreted luciferase (Lucia) reporter gene under the control of an IRF-inducible promotor. The reporter cell line was developed from human monocytic leukemia THP-1 cells.
as §4, §5

Test [4] concerns CXCL10 secretion by CT26 cells. As to the kind of experiment: RIG-I dependent CXCL10 secretion by CT26 colon carcinoma cells (ELISA). Conditions: 24 h. In kind it is cell-based, murine. The procedure:
as §1, §2, §3

As to `O=C(Nc1nc2ccc([N+](=O)[O-])cc2s1)c1cc2ccccc2cc1OCCN1CCOCC1` [Example 20, 3-[2-(morpholin-4-yl)ethoxy]-N-(6-nitro-1,3-benzothiazol-2-yl)naphthalene-2-carboxamide], the “CXCL10 secretion by CT26 RIG-I −/− cells” value in test [1] (5 μM compound (**)) is given as “−** (“−” indicates less than 100 pg/mL)”. In addition, the fold induction at 10 µM in test [2] was less than 2.4; in test [3], 10 to 19. Moreover, the “CXCL10 secretion by CT26 cells” value in test [4] (5 μM compound (**)) is given as “+** (“+” indicates 100-199 pg/mL)”.
The like results for `O=C(Nc1nc2ccc(NC(=O)C3CCCCC3)cc2s1)c1cc2ccccc2cc1OCCN1CCOCC1` [Example 21, N-(6-cyclohexaneamido-1,3-benzothiazol-2-yl)-3-[2-(morpholin-4-yl)ethoxy]naphthalene-2-carboxamide] were, in that order, “−** (“−” indicates less than 100 pg/mL)”, less than 2.4, 5 to 9.9 and “+** (“+” indicates 100-199 pg/mL)”.
In the case of `O=C(Nc1nc2ccc(NC(=O)C3CCCCC3)cc2s1)c1cc2ccccc2cc1OCCCCN1CCOCC1` [Example 22, N-(6-cyclohexaneamido-1,3-benzothiazol-2-yl)-3-[4-(morpholin-4-yl)butoxy]naphthalene-2-carboxamide], the “CXCL10 secretion by CT26 RIG-I −/− cells” value in test [1] (5 μM compound (**)) is on record as “−** (“−” indicates less than 100 pg/mL)”. In addition, the fold induction at 5 µM is less than 2.4 in test [2] and 2.4 to 4.9 in test [3]. The “CXCL10 secretion by CT26 cells” value in test [4] (5 μM compound (**)) is reported as “+** (“+” indicates 100-199 pg/mL)”.
Turning to `O=C(Nc1nc2ccc([N+](=O)[O-])cc2s1)c1cc2ccccc2cc1OCCCCN1CCOCC1` [Example 23, 3-[4-(morpholin-4-yl)butoxy]-N-(6-nitro-1,3-benzothiazol-2-yl)naphthalene-2-carboxamide], the “CXCL10 secretion by CT26 RIG-I −/− cells” value in test [1] (5 μM compound (**)) is reported as “−** (“−” indicates less than 100 pg/mL)”. Also, the fold induction at 5 µM in test [2] is less than 2.4; in test [3] it was 5 to 9.9. The “CXCL10 secretion by CT26 cells” value in test [4] (5 μM compound (**)) is given as “++++** (“++++” indicates 800 to 1599 pg/mL)”.
Turning to `N#Cc1ccc2nc(NC(=O)c3cc4ccccc4cc3OCCN3CCOCC3)sc2c1` [Example 24, N-(6-cyano-1,3-benzothiazol-2-yl)-3-[2-(morpholin-4-yl)ethoxy]naphthalene-2-carboxamide], the “CXCL10 secretion by CT26 RIG-I −/− cells” value in test [1] (10 μM compound) is given as “− (“−” indicates less than 100 pg/mL)”. Further, the values for the fold induction at 10 µM in test [2] and in test [3] were less than 2.4 and 5 to 9.9, respectively. Also, the “CXCL10 secretion by CT26 cells” value in test [4] (10 μM compound) is given as “− (“−” indicates less than 100 pg/mL)”.
Regarding `N#Cc1ccc2nc(NC(=O)c3cc4ccccc4cc3OCCCCN3CCOCC3)sc2c1` [Example 25, N-(6-cyano-1,3-benzothiazol-2-yl)-3-[4-(morpholin-4-yl)butoxy]naphthalene-2-carboxamide], the “CXCL10 secretion by CT26 RIG-I −/− cells” value in test [1] (20 μM compound (*)) is on record as “−* (“−” indicates less than 100 pg/mL)”. Besides, the fold induction at 5 µM in test [2] is less than 2.4. Also, in test [3] (20 μM compound (*)), the fold induction at 20 µM is 2.4 to 4.9. For the same compound, the “CXCL10 secretion by CT26 cells” value in test [4] (20 μM compound (*)) was “+* (“+” indicates 100-199 pg/mL)”.
Take `CS(=O)(=O)Nc1ccc2nc(NC(=O)c3cc4ccccc4cc3OCCCCN3CCOCC3)sc2c1` [Example 27, N-(6-methanesulfonamido-1,3-benzothiazol-2-yl)-3-[4-(morpholin-4-yl)butoxy]naphthalene-2-carboxamide]: the “CXCL10 secretion by CT26 RIG-I −/− cells” value in test [1] (10 μM compound) was “− (“−” indicates less than 100 pg/mL)”. The values for the fold induction at 10 µM in test [2] and in test [3] were less than 2.4 and 20 to 39, respectively. Further, the “CXCL10 secretion by CT26 cells” value in test [4] (10 μM compound) is listed as “+++ (“+++” indicates 400-799 pg/mL)”.
The like results for `CS(=O)(=O)Nc1ccc2nc(NC(=O)c3cc4ccccc4cc3OCCN3CCOCC3)sc2c1` [Example 28, N-(6-methanesulfonamido-1,3-benzothiazol-2-yl)-3-[2-(morpholin-4-yl)ethoxy]naphthalene-2-carboxamide] were, in that order, “− (“−” indicates less than 100 pg/mL)”, less than 2.4, 2.4 to 4.9 and “+ (“+” indicates 100-199 pg/mL)”.
As to `O=C(Nc1nc2ccc(S(=O)(=O)N3CCCC3)cc2s1)c1cc2ccccc2cc1OCCN1CCOCC1` [Example 29, 3-[2-(morpholin-4-yl)ethoxy]-N-[6-(pyrrolidine-1-sulfonyl)-1,3-benzothiazol-2-yl]naphthalene-2-carboxamide], the “CXCL10 secretion by CT26 RIG-I −/− cells” value in test [1] (10 μM compound) is listed as “− (“−” indicates less than 100 pg/mL)”. Moreover, the figures for the fold induction at 10 µM in test [2] and in test [3] were less than 2.4 and not below 40, respectively. Moreover, the “CXCL10 secretion by CT26 cells” value in test [4] (10 μM compound) is listed as “++++ (“++++” indicates 800 to 1599 pg/mL)”.
As to `CN(C)S(=O)(=O)c1ccc2nc(NC(=O)c3cc4ccccc4cc3OCCN3CCOCC3)sc2c1` [Example 30, N-[6-(dimethylsulfamoyl)-1,3-benzothiazol-2-yl]-3-[2-(morpholin-4-yl)ethoxy]naphthalene-2-carboxamide], the “CXCL10 secretion by CT26 RIG-I −/− cells” value in test [1] (10 μM compound) is on record as “− (“−” indicates less than 100 pg/mL)”. In addition, the values for the fold induction at 10 µM in test [2] and in test [3] were less than 2.4 and 10 to 19, respectively. In addition, the “CXCL10 secretion by CT26 cells” value in test [4] (10 μM compound) is “+++ (“+++” indicates 400-799 pg/mL)”.
Consider `O=C(Nc1nc2ccc(S(=O)(=O)N3CCCC3)cc2s1)c1cc2ccccc2cc1OCCCCN1CCOCC1` [Example 31, 3-[4-(morpholin-4-yl)butoxy]-N-[6-(pyrrolidine-1-sulfonyl)-1,3-benzothiazol-2-yl]naphthalene-2-carboxamide], for which the “CXCL10 secretion by CT26 RIG-I −/− cells” value in test [1] (10 μM compound) is on record as “− (“−” indicates less than 100 pg/mL)”. Moreover, the fold induction at 10 µM in test [2] is less than 2.4; in test [3], 10 to 19. In test [4] (10 μM compound), the “CXCL10 secretion by CT26 cells” value was “+++++ (“+++++” indicates greater than or equal to 1600 pg/ml)”.
For the compound `NS(=O)(=O)c1ccc2nc(NC(=O)c3cc4ccccc4cc3OCCCCN3CCOCC3)sc2c1` [Example 32, 3-[4-(morpholin-4-yl)butoxy]-N-(6-sulfamoyl-1,3-benzothiazol-2-yl)naphthalene-2-carboxamide], the “CXCL10 secretion by CT26 RIG-I −/− cells” value in test [1] (10 μM compound) is “− (“−” indicates less than 100 pg/mL)”. The fold induction at 5 µM was less than 2.4 in test [2] and 5 to 9.9 in test [3]. In addition, the “CXCL10 secretion by CT26 cells” value in test [4] (10 μM compound) is listed as “++++ (“++++” indicates 800 to 1599 pg/mL)”.
With `O=C(Nc1nc2cccc(NC(=S)Nc3ccccc3)c2s1)c1cc2ccccc2cc1OCCCCN1CCOCC1` [Example 33, 3-[4-(morpholin-4-yl)butoxy]-N-{7-[(phenylcarbamothioyl)amino]-1,3-benzothiazol-2-yl}naphthalene-2-carboxamide], the “CXCL10 secretion by CT26 RIG-I −/− cells” value in test [1] (5 μM compound (**)) is given as “−** (“−” indicates less than 100 pg/mL)”. Besides, the figures for the fold induction at 10 µM in test [2] and in test [3] were less than 2.4 and 2.4 to 4.9, respectively. Besides, in test [4] (5 μM compound (**)), the “CXCL10 secretion by CT26 cells” value was “++** (“++” indicates 200-399 pg/mL)”.
